Experimental data as given in patent publication US20180319810A1, “SUBSTITUTED BRIDGED UREA ANALOGS AS SIRTUIN MODULATORS” (GlaxoSmithKline Intellectual Property (No.2) Limited, priority 2014, published 2018).

Molecular target: T1, SIRT1 (Homo sapiens, UniProt Q96EB6)
T1 sequence (Q96EB6 1-747): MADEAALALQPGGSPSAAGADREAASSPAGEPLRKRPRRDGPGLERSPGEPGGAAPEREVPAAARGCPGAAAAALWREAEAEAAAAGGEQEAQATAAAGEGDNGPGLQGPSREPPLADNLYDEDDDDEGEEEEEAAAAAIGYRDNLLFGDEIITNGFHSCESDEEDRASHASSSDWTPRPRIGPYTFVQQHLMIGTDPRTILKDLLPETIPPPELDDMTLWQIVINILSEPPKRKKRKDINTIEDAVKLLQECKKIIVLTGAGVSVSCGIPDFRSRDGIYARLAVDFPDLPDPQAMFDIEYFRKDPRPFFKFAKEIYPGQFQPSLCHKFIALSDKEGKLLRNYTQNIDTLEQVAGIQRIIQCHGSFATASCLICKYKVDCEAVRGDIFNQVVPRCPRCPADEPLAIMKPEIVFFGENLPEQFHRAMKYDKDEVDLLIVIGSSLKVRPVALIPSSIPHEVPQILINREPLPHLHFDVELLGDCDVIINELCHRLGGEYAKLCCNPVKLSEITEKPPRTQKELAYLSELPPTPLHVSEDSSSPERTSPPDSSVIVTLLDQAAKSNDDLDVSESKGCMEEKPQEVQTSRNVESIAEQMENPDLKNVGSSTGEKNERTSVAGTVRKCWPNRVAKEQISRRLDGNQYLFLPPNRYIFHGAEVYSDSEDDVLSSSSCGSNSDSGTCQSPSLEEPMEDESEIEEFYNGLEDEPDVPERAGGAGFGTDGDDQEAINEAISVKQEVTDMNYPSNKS
Experiment: Trp mass spectrometry assay of SIRT1 activation
Type: biochemical
Details: Trp peptide Ac-R-H-K-K(Ac)-W-NH2 0.5 μM, 120 μM βNAD+, 10 nM SIRT1, 25 min, 25° C.
Excerpt: Mass spectrometry based assays were used to identify modulators of SIRT1 activity. […] The peptide was labeled with the fluorophore 5TMR (excitation 540 nm/emission 580 nm) at the C-terminus. The sequence of the peptide substrate was based on p53 with several modifications. In addition, the methionine residue naturally present in the sequence was replaced with the norleucine because the methionine may be susceptible to oxidation during synthesis and purification.
The Trp mass spectrometry assay was conducted as follows. […] The SIRT1 protein was obtained by cloning the SirT1 gene into a T7-promoter containing vector, which was then expressed in BL21(DE3) bacterial cells and purified as described in further detail below. Test compound was added at varying concentrations to this reaction mixture and the resulting reactions were monitored. After the 25 minute incubation with SIRT1, 10 μL of 10% formic acid was added to stop the reaction. The resulting reactions were sealed and frozen for later mass spec analysis. The relative SIRT1 activity was then determined by measuring the amount of O-acetyl-ADP-ribose (OAADPR) formed (or, alternatively, the amount of deacetylated Trp peptide generated) by the NAD-dependent sirtuin deacetylation reaction in the presence of varying concentrations of the test compound versus control reactions lacking the test compound.
The degree to which the test agent activated deacetylation by SIRT1 was expressed as EC1.5 (i.e., the concentration of compound required to increase SIRT1 activity by 50% over the control lacking test compound), and Percent Maximum Activation (i.e., the maximum activity relative to control (100%) obtained for the test compound).
This time point was the same as that used for test compounds and, within the linear range, the endpoint represents a change in velocity.
For the above assay, SIRT1 protein was expressed and purified as follows. The SirT1 gene was cloned into a T7-promoter containing vector and transformed into BL21(DE3). The protein was expressed by induction with 1 mM IPTG as an N-terminal His-tag fusion protein at 18° C. overnight and harvested at 30,000×g. Cells were lysed with lysozyme in lysis buffer (50 mM Tris-HCl, 2 mM Tris[2-carboxyethyl]phosphine (TCEP), 10 μM ZnCl2, 200 mM NaCl) and further treated with sonication for 10 min for complete lysis. The protein was purified over a Ni-NTA column (Amersham) and fractions containing pure protein were pooled, concentrated and run over a sizing column (Sephadex S200 26/60 global). The peak containing soluble protein was collected and run on an Ion-exchange column (MonoQ). Gradient elution (200 mM-500 mM NaCl) yielded pure protein. This protein was concentrated and dialyzed against dialysis buffer (20 mM Tris-HCl, 2 mM TCEP) overnight. The protein was aliquoted and frozen at −80° C. until further use.
“NT” means not tested; “ND” means not determinable.

| Structure (SMILES) | TRP Activity (EC1.5, concentration of compound required to increase SIRT1 activity by 50% over control) | TRP MAX RESP (percent maximum fold activation relative to control) |
| --- | --- | --- |
| Cc1ccc2c(NC(=O)N3c4nc(C(=O)NC(CO)C(F)(F)F)ncc4N4CCC[C@H]3C4)n[nH]c2n1 (single isomer, unassigned) [Example 66] | A (EC1.5<1 μM) | A (Fold activation ≥150%) |
| Cc1ccc2c(NC(=O)N3c4nc(C(=O)NC(CO)C(F)(F)F)ncc4N4CCC[C@H]3C4)n[nH]c2n1 (single isomer, unassigned) [Example 68] | B (EC1.5 1-25 μM) | A (Fold activation ≥150%) |
| Cc1nc(C(=O)N[C@H](C)C(F)(F)F)nc2c1N1CC[C@@H](C1)N2C(=O)Nc1cc(OC[C@H](O)CO)ccn1 [Example 1, (8S)—N9-(4-((R)-2,3-dihydroxypropoxy)pyridin-2-yl)-4-methyl-N2-((R)-1,1,1-trifluoropropan-2-yl)-7,8-dihydro-5,8-methanopyrimido[4,5-b][1,4]diazepine-2,9(6H)-dicarboxamide] | A (EC1.5<1 μM) | A (Fold activation ≥150%) |
| Cn1cccc(NC(=O)N2c3nc(C(=O)NCC(F)(F)F)ncc3N3CC[C@H]2C3)c1=O [Example 2, (8S)—N9-(1-methyl-2-oxo-1,2-dihydropyridin-3-yl)-N2-(2,2,2-trifluoroethyl)-7,8-dihydro-5,8-methanopyrimido[4,5-b][1,4]diazepine-2,9(6H)-dicarboxamide] | B (EC1.5 1-25 μM) | A (Fold activation ≥150%) |
| O=C(Nc1ccccn1)N1c2nc(-c3cccc(C(F)(F)F)c3)ncc2N2CC[C@H]1C2 [Example 3, (8S)—N-(pyridin-2-yl)-2-(3-(trifluoromethyl)phenyl)-7,8-dihydro-5,8-methano pyrimido[4,5-b][1,4]diazepine-9(6H)-carboxamide] |  | A (Fold activation ≥150%) |
| Cc1ccc(-c2ncc3c(n2)N(C(=O)Nc2ccccn2)[C@H]2CCN3C2)cn1 [Example 4, (8S)-2-(6-methylpyridin-3-yl)-N-(pyridin-2-yl)-7,8-dihydro-5,8-methanopyrimido[4,5-b][1,4]diazepine-9(6H)-carboxamide] | B (EC1.5 1-25 μM) |  |
| Cc1ccc(-c2ncc3c(n2)N(C(=O)Nc2cccnc2)[C@H]2CCN3C2)cn1 [Example 5, (8S)-2-(6-methylpyridin-3-yl)-N-(pyridin-3-yl)-7,8-dihydro-5,8-methanopyrimido[4,5-b][1,4]diazepine-9(6H)-carboxamide] | B (EC1.5 1-25 μM) | A (Fold activation ≥150%) |
| Cc1cc(-c2ncc3c(n2)N(C(=O)Nc2cccnc2)[C@H]2CCN3C2)ccn1 [Example 6, (8S)-2-(2-methylpyridin-4-yl)-N-(pyridin-3-yl)-7,8-dihydro-5,8-methano pyrimido[4,5-b][1,4]diazepine-9(6H)-carboxamide] | B (EC1.5 1-25 μM) | A (Fold activation ≥150%) |
| Cc1ccc(-c2nc(C)c3c(n2)N(C(=O)Nc2cccnc2)[C@H]2CCN3C2)cn1 [Example 7, (8S)-4-methyl-2-(6-methylpyridin-3-yl)-N-(pyridin-3-yl)-7,8-dihydro-5,8-methanopyrimido[4,5-b][1,4]diazepine-9(6H)-carboxamide] | B (EC1.5 1-25 μM) | A (Fold activation ≥150%) |
| Cc1cc(-c2ncc3c(n2)N(C(=O)Nc2ccccn2)[C@H]2CCN3C2)ccn1 [Example 8, (8S)-2-(2-methylpyridin-4-yl)-N-(pyridin-2-yl)-7,8-dihydro-5,8-methanopyrimido[4,5-b][1,4]diazepine-9(6H)-carboxamide] | B (EC1.5 1-25 μM) |  |
| CN(C)c1ccc(-c2ncc3c(n2)N(C(=O)Nc2ccccn2)[C@H]2CCN3C2)cn1 [Example 9, (8S)-2-(6-(dimethylamino)pyridin-3-yl)-N-(pyridin-2-yl)-7,8-dihydro-5,8-methanopyrimido[4,5-b][1,4]diazepine-9(6H)-carboxamide] | B (EC1.5 1-25 μM) |  |
| Cc1cc(-c2nc(C)c3c(n2)N(C(=O)Nc2ccccn2)[C@H]2CCN3C2)ccn1 [Example 10, (8S)-4-methyl-2-(2-methylpyridin-4-yl)-N-(pyridin-2-yl)-7,8-dihydro-5,8-methanopyrimido[4,5-b][1,4]diazepine-9(6H)-carboxamide] | B (EC1.5 1-25 μM) | A (Fold activation ≥150%) |
| CN(C)c1cc(-c2ncc3c(n2)N(C(=O)Nc2ccccn2)[C@H]2CCN3C2)ccn1 [Example 11, (8S)-2-(2-(dimethylamino)pyridin-4-yl)-N-(pyridin-2-yl)-7,8-dihydro-5,8-methano pyrimido[4,5-b][1,4]diazepine-9(6H)-carboxamide] | B (EC1.5 1-25 μM) |  |
| Cc1ccc(-c2nc(C)c3c(n2)N(C(=O)Nc2ccccn2)[C@H]2CCN3C2)cn1 [Example 12, (8S)-4-methyl-2-(6-methylpyridin-3-yl)-N-(pyridin-2-yl)-7,8-dihydro-5,8-methanopyrimido[4,5-b][1,4]diazepine-9(6H)-carboxamide] | B (EC1.5 1-25 μM) | A (Fold activation ≥150%) |
| O=C(Nc1ccnc(O[C@@H]2CCOC2)n1)N1c2nc(-c3cccc(C(F)(F)F)c3)ncc2N2CC[C@H]1C2 [Example 14, (8S)—N-(2-(((R)-tetrahydrofuran-3-yl)oxy)pyrimidin-4-yl)-2-(3-(trifluoromethyl)phenyl)-7,8-dihydro-5,8-methanopyrimido[4,5-b][1,4]diazepine-9(6H)-carboxamide] | B (EC1.5 1-25 μM) | A (Fold activation ≥150%) |
| O=C(NC1CC1)N1c2nc(-c3cccc(C(F)(F)F)c3)ncc2N2CC[C@H]1C2 [Example 15, (8S)—N-cyclopropyl-2-(3-(trifluoromethyl)phenyl)-7,8-dihydro-5,8-methanopyrimido[4,5-b][1,4]diazepine-9(6H)-carboxamide] | A (EC1.5<1 μM) | A (Fold activation ≥150%) |
